Assay results reported in BindingDB's records for doi:10.7270/Q2VT1QHF (Vanderbilt Screening Center For Gpcrs, Ion Channels and …, 2010).

Biological target: Metabotropic glutamate receptor 4 (Homo sapiens, UniProt Q14833)
Test: PubChem AID 2197

Metabotropic glutamate receptor 4, sequence (Q14833 whole entry): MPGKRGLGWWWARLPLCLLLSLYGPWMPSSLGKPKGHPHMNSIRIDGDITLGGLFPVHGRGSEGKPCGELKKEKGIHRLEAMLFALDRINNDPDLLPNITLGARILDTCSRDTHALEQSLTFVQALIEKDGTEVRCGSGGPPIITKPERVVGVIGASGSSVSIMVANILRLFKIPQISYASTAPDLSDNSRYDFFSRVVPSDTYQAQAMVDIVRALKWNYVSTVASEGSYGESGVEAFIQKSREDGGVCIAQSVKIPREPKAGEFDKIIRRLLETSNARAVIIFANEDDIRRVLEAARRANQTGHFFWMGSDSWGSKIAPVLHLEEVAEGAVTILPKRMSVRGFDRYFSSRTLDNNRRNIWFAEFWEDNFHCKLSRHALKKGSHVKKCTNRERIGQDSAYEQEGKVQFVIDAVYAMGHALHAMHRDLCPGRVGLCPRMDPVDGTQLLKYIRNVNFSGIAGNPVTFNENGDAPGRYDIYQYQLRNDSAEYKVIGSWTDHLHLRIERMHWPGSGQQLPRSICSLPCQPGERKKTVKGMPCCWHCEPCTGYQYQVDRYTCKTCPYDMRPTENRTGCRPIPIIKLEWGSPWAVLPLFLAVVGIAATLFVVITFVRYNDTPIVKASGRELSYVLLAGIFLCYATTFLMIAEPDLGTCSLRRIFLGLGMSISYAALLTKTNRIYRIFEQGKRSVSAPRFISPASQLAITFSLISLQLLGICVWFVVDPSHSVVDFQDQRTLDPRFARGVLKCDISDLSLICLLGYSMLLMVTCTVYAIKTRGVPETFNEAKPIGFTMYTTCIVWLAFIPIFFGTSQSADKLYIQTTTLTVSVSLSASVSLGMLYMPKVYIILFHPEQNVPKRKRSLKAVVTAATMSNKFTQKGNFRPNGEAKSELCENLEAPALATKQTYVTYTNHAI

| Compound | EC50 [µM] |
| --- | --- |
| O=C(Nc1ccc(-n2c(O)c3c(c2O)[C@H]2CC[C@@H]3O2)c(Cl)c1)c1ccccn1 [VU0405235-1] | 1.44 |
| O=C(Nc1ccc(-n2c(O)ccc2O)c(Cl)c1)c1ccccn1 [N-[3-chloro-4-(2,5-dioxopyrrolidin-1-yl)phenyl]pyridine-2-carboxamide] | 5.96 |
